pIC50: −log10 of the molar value.
Test system: 699152-130-R-J1-PDC complex spheroid growth
Assay: Anticancer human tumor 699152-130-R-J1-PDC patient-derived pancreatic carcinoma cell line growth inhibition [AhR]
Conditions: for pIC50: curve of first compound; for viability, T/C: stronger effect = lower value
Method in brief: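 Agents were dosed in half-log steps down from roughly clinical Cmax, or from 10 microM where Cmax was unknown, alone and with AhR antagonists. Read-out: percent test/control growth of tumor spheroids containing HUVEC and MSC stromal cells.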

[1] = second compound 0.1 µM, first compound 0.00316 µM
[2] = second compound 0.1 µM, first compound 0.01 µM
[3] = second compound 0.1 µM, first compound 0.0316 µM
[4] = second compound 0.1 µM, first compound 0.1 µM
[5] = second compound 0.316 µM, first compound 0.00316 µM
[6] = second compound 0.316 µM, first compound 0.01 µM
[7] = second compound 0.316 µM, first compound 0.0316 µM
[8] = second compound 0.316 µM, first compound 0.1 µM
[9] = second compound 1 µM, first compound 0.00316 µM
[10] = second compound 1 µM, first compound 0.01 µM
[11] = second compound 1 µM, first compound 0.0316 µM
[12] = second compound 1 µM, first compound 0.1 µM
[13] = second compound 3.16 µM, first compound 0.00316 µM
[14] = second compound 3.16 µM, first compound 0.01 µM
[15] = second compound 3.16 µM, first compound 0.0316 µM
[16] = second compound 3.16 µM, first compound 0.1 µM
[17] = second compound 10 µM, first compound 0.00316 µM
[18] = second compound 10 µM, first compound 0.01 µM
[19] = second compound 10 µM, first compound 0.0316 µM
[20] = second compound 10 µM, first compound 0.1 µM
[21] = second compound 0.1 µM, first compound 0.316 µM
[22] = second compound 0.1 µM, first compound 1 µM
[23] = second compound 0.1 µM, first compound 3.16 µM
[24] = second compound 0.1 µM, first compound 10 µM
[25] = second compound 0.316 µM, first compound 0.316 µM
[26] = second compound 0.316 µM, first compound 1 µM
[27] = second compound 0.316 µM, first compound 3.16 µM
[28] = second compound 0.316 µM, first compound 10 µM
[29] = second compound 1 µM, first compound 0.316 µM
[30] = second compound 1 µM, first compound 1 µM
[31] = second compound 1 µM, first compound 3.16 µM
[32] = second compound 1 µM, first compound 10 µM
[33] = second compound 3.16 µM, first compound 0.316 µM
[34] = second compound 3.16 µM, first compound 1 µM
[35] = second compound 3.16 µM, first compound 3.16 µM
[36] = second compound 3.16 µM, first compound 10 µM
[37] = second compound 10 µM, first compound 0.316 µM
[38] = second compound 10 µM, first compound 1 µM
[39] = second compound 10 µM, first compound 3.16 µM
[40] = second compound 10 µM, first compound 10 µM
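Further: compound exposure lasted 7 days after spheroids had grown for 3 days.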

Compound	pIC50 (second compound 0.1 µM)	pIC50 (second compound 0.316 µM)	pIC50 (second compound 1 µM)	pIC50 (second compound 3.16 µM)	pIC50 (second compound 10 µM)	viability, T/C [3] [%]	viability, T/C [4] [%]	viability, T/C [7] [%]	viability, T/C [8] [%]	viability, T/C [11] [%]	viability, T/C [12] [%]	viability, T/C [15] [%]	viability, T/C [16] [%]	viability, T/C [19] [%]	viability, T/C [20] [%]	viability, T/C [21] [%]	viability, T/C [22] [%]	viability, T/C [25] [%]	viability, T/C [26] [%]	viability, T/C [29] [%]	further results
CC[C@@]1(O)C(=O)OCc2c1cc1n(c2=O)Cc2cc3c(CN(C)C)c(O)ccc3nc2-1 + Cc1ccccc1N=Nc1ccc(NC(=O)c2ccnn2C)c(C)c1	< 7.00	7.12	< 7.00	< 7.00	< 7.00	68.8	55.1	63.5	45.5	60.5	50.6	60.9	54.3	70	50.8	–	–	–	–	–	viability, T/C (second compound 0.1 µM, first compound 0.000316 µM): 95.9%; viability, T/C (second compound 0.1 µM, first compound 0.001 µM): 99%; viability, T/C [1]: 101%; viability, T/C [2]: 82.7%; viability, T/C (second compound 0.316 µM, first compound 0.000316 µM): 97.9%; viability, T/C (second compound 0.316 µM, first compound 0.001 µM): 94%; viability, T/C [5]: 99.6%; viability, T/C [6]: 80.1%; viability, T/C (second compound 1 µM, first compound 0.000316 µM): 94.2%; viability, T/C (second compound 1 µM, first compound 0.001 µM): 98.1%; viability, T/C [9]: 94.2%; viability, T/C [10]: 77.9%; viability, T/C (second compound 3.16 µM, first compound 0.000316 µM): 96.2%; viability, T/C (second compound 3.16 µM, first compound 0.001 µM): 105%; viability, T/C [13]: 92.9%; viability, T/C [14]: 86.5%; viability, T/C (second compound 10 µM, first compound 0.000316 µM): 107%; viability, T/C (second compound 10 µM, first compound 0.001 µM): 117%; viability, T/C [17]: 86.6%; viability, T/C [18]: 82.7%
COc1cc(C2c3cc4c(cc3C(OC3OC5COC(C)OC5C(O)C3O)C3COC(=O)C23)OCO4)cc(OC)c1O (stereo not given) + Cc1ccccc1N=Nc1ccc(NC(=O)c2ccnn2C)c(C)c1	< 5.00	5.39	< 5.00	5.14	< 5.00	96.8	117	95.9	88.8	104	106	108	89.4	106	88.7	74.5	62.5	66.2	62.1	81	viability, T/C [23]: 48.2%; viability, T/C [24]: 48.2%; viability, T/C [27]: 53.6%; viability, T/C [28]: 43.4%; viability, T/C [30]: 62.1%; viability, T/C [31]: 60.6%; viability, T/C [32]: 50.5%; viability, T/C [33]: 65.4%; viability, T/C [34]: 62.5%; viability, T/C [35]: 54.4%; viability, T/C [36]: 47.3%; viability, T/C [37]: 55%; viability, T/C [38]: 65.1%; viability, T/C [39]: 65.1%; viability, T/C [40]: 57.1%
COc1cccc2c1C(=O)c1c(O)c3c(c(O)c1C2=O)CC(O)(C(=O)CO)CC3OC1CC(N)C(O)C(C)O1 (stereo not given) + Cc1ccccc1N=Nc1ccc(NC(=O)c2ccnn2C)c(C)c1	6.67	6.55	6.64	6.81	6.67	65.5	59.3	58.8	58.8	65.5	62.9	62.1	53.2	74.4	63.1	44	25.2	45.8	30.2	43	viability, T/C [23]: 4.33%; viability, T/C [24]: 8.93%; viability, T/C [27]: 2.54%; viability, T/C [28]: 9.1%; viability, T/C [30]: 26.5%; viability, T/C [31]: 4.29%; viability, T/C [32]: 6.64%; viability, T/C [33]: 40.9%; viability, T/C [34]: 26.1%; viability, T/C [35]: 2.91%; viability, T/C [36]: 8.18%; viability, T/C [37]: 42.6%; viability, T/C [38]: 22.7%; viability, T/C [39]: 4.35%; viability, T/C [40]: 10.2%
Nc1ccn(C2OC(CO)C(O)C2(F)F)c(=O)n1 (stereo not given) + Cc1ccccc1N=Nc1ccc(NC(=O)c2ccnn2C)c(C)c1	6.81	6.33	6.41	6.34	5.76	52.3	55.2	57.9	58.4	68.2	58.7	58.6	57.1	74.9	61.9	43.9	45.8	52.1	46.8	50.2	viability, T/C [23]: 39.6%; viability, T/C [24]: 33.9%; viability, T/C [27]: 40.1%; viability, T/C [28]: 41.6%; viability, T/C [30]: 46.4%; viability, T/C [31]: 44.2%; viability, T/C [32]: 43.1%; viability, T/C [33]: 48.4%; viability, T/C [34]: 48.3%; viability, T/C [35]: 44.5%; viability, T/C [36]: 39.5%; viability, T/C [37]: 56.2%; viability, T/C [38]: 51.8%; viability, T/C [39]: 48.5%; viability, T/C [40]: 47.2%
Nc1ncn(C2CC(O)C(CO)O2)c(=O)n1 (stereo not given) + Cc1ccccc1N=Nc1ccc(NC(=O)c2ccnn2C)c(C)c1	< 6.00	< 6.00	< 6.00	< 6.00	< 6.00	93.7	86.6	99.7	90.5	87.9	91.2	86.8	77.2	75.3	83.9	81.9	78.7	85.6	80.6	88.7	viability, T/C [1]: 98.3%; viability, T/C [2]: 98.6%; viability, T/C [5]: 95.3%; viability, T/C [6]: 91.7%; viability, T/C [9]: 93.9%; viability, T/C [10]: 95.6%; viability, T/C [30]: 88.5%; viability, T/C [13]: 104%; viability, T/C [14]: 102%; viability, T/C [33]: 104%; viability, T/C [34]: 86.4%; viability, T/C [17]: 117%; viability, T/C [18]: 103%; viability, T/C [37]: 86.5%; viability, T/C [38]: 85.6%

From PubChem BioAssay AID1919001 (Molecular Pharmacology Branch, DTP, NCI, 2023)
